# Assay results published in the supplement of paper PMC10307832.
# Tests used:
# Test in all cases: relative viability (nuclei count vs DMSO), 5 days (fraction); higher = more cells survive
# Sunitinib + Pemetrexed = compound: CCN(CC)CCNC(=O)c1c(C)[nH]c(/C=C2\C(=O)Nc3ccc(F)cc32)c1C [Sunitinib] + Nc1nc2[nH]cc(CCc3ccc(C(=O)N[C@@H](CCC(=O)O)C(=O)O)cc3)c2c(=O)[nH]1 [Pemetrexed] (partner 0.2 µM)
# Outline: (§1)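 For relative viability, nuclei counts in treated wells were divided by those in vehicle wells. Lung cancer cell lines had been pin-tool dosed in 1536-well plates the day after seeding and cultured for 5 days, then fixed and stained in one step (final 0.05% Triton X-100, 1% formaldehyde, 1 ug/ml Hoechst) and imaged at 4×. Doses were one drug alone or a fixed anchor-drug dose plus five library-drug doses (not always all listed) in √10 steps, and values are duplicate-plate medians.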
# Sunitinib + OSI-027 = compound: CCN(CC)CCNC(=O)c1c(C)[nH]c(/C=C2\C(=O)Nc3ccc(F)cc32)c1C [Sunitinib] + COc1cccc2cc(-c3nc([C@H]4CC[C@H](C(=O)O)CC4)n4ncnc(N)c34)[nH]c12 [OSI-027] (partner 0.5 µM)
# Outline: as §1
# Sunitinib + Foretinib = compound: CCN(CC)CCNC(=O)c1c(C)[nH]c(/C=C2\C(=O)Nc3ccc(F)cc32)c1C [Sunitinib] + COc1cc2c(Oc3ccc(NC(=O)C4(C(=O)Nc5ccc(F)cc5)CC4)cc3F)ccnc2cc1OCCCN1CCOCC1 [Foretinib] (partner 0.25 µM)
# Outline: as §1
# Sunitinib + AZD7762 = compound: CCN(CC)CCNC(=O)c1c(C)[nH]c(/C=C2\C(=O)Nc3ccc(F)cc32)c1C [Sunitinib] + NC(=O)Nc1cc(-c2cccc(F)c2)sc1C(=O)N[C@H]1CCCNC1 [AZD7762] (partner 0.2 µM)
# Outline: as §1
Cell Line,relative viability (Sunitinib + Pemetrexed; first compound 0.02 µM),relative viability (Sunitinib + Pemetrexed; first compound 0.06325 µM),relative viability (Sunitinib + Pemetrexed; first compound 0.2 µM),relative viability (Sunitinib + Pemetrexed; first compound 0.6325 µM),relative viability (Sunitinib + Pemetrexed; first compound 2 µM),relative viability (Sunitinib + OSI-027; first compound 0.02 µM),relative viability (Sunitinib + OSI-027; first compound 0.06325 µM),relative viability (Sunitinib + OSI-027; first compound 0.2 µM),relative viability (Sunitinib + OSI-027; first compound 0.6325 µM),relative viability (Sunitinib + OSI-027; first compound 2 µM),relative viability (Sunitinib + Foretinib; first compound 0.02 µM),relative viability (Sunitinib + Foretinib; first compound 0.06325 µM),relative viability (Sunitinib + Foretinib; first compound 0.2 µM),relative viability (Sunitinib + Foretinib; first compound 0.6325 µM),relative viability (Sunitinib + Foretinib; first compound 2 µM),relative viability (Sunitinib + AZD7762; first compound 0.02 µM),relative viability (Sunitinib + AZD7762; first compound 0.06325 µM),relative viability (Sunitinib + AZD7762; first compound 0.2 µM),relative viability (Sunitinib + AZD7762; first compound 0.6325 µM),relative viability (Sunitinib + AZD7762; first compound 2 µM)
COR-L23,0.207,0.196,0.196,0.199,0.216,0.73,0.829,0.889,0.878,0.779,0.972,0.945,1.14,0.961,0.969,,,,,
LK-2,0.266,0.335,0.31,0.254,0.292,0.175,0.257,0.189,0.2,0.194,1.1,1.56,1.72,1.42,1.24,0.35,0.571,0.352,0.414,0.443
SK-LU-1,0.944,1,1.1,1.12,0.884,0.323,0.387,0.4,0.348,0.199,,0.901,1.06,0.834,0.581,,,,,
NCI-H1651,0.597,0.609,0.617,0.481,0.604,0.57,,0.73,0.534,0.714,0.762,0.843,0.877,0.826,0.806,0.462,0.478,0.451,0.441,0.449
NCI-H2126,0.628,0.826,0.777,0.786,0.751,0.738,0.665,0.988,0.773,0.672,1.13,1.31,1.34,1.47,1.31,0.937,1.07,1.21,1.03,1.02
NCI-H596,0.535,0.465,0.507,0.582,0.486,0.731,0.799,0.787,0.699,0.552,0.688,0.949,0.779,0.849,0.649,,1.12,1.18,,0.858
NCI-H1734,0.406,0.426,0.396,0.411,0.411,0.613,0.683,0.7,0.608,0.511,0.815,0.896,0.966,,0.752,0.436,0.592,0.635,0.543,0.518
NCI-H1648,0.897,0.737,0.898,0.704,0.835,,0.24,0.266,0.231,0.294,,,,,,0.702,0.814,0.694,0.715,0.828
NCI-H23,0.689,0.823,0.922,0.86,0.563,0.57,0.749,0.675,0.803,0.469,0.875,1.25,1.03,1.1,0.749,0.287,0.281,0.36,0.226,0.241
LXF-289,0.882,0.972,0.925,0.945,0.874,0.759,0.964,0.863,0.913,0.961,0.979,1.02,1.02,1.03,1.1,1.08,1.16,1.14,1.19,1.08
HCC-44,0.615,0.607,0.676,0.68,0.692,0.558,0.459,0.676,0.64,0.665,,,,,,1.05,1.08,1.01,1.01,1.05
EMC-BAC-2,0.427,0.426,0.472,0.481,0.464,0.372,0.41,0.423,0.4,0.502,0.973,1.08,1.15,1.07,0.969,1.08,1.24,1.22,1.27,1.2
NCI-H522,0.861,1.12,0.915,0.858,0.999,0.648,0.831,0.769,0.744,0.69,,,,,,0.839,,0.73,0.848,0.942
NCI-H1975,0.289,0.318,0.317,0.298,0.305,0.62,0.826,0.805,0.633,0.498,0.899,1.03,1.07,1.01,1.01,0.748,0.679,0.723,0.705,0.579
PC-14,0.137,0.158,0.135,0.132,0.153,0.716,0.893,1.02,0.795,0.695,0.942,0.939,1.08,1,0.874,0.374,0.442,0.387,0.319,0.348
LCLC-103H,0.452,0.443,0.487,0.442,0.445,0.373,0.477,0.467,0.397,0.456,0.702,1.01,0.922,0.873,0.791,0.808,0.786,0.89,0.925,0.851
NCI-H1944,0.588,,0.772,0.684,0.655,0.365,0.437,0.514,0.513,0.409,0.738,1,0.962,0.944,0.863,0.435,0.481,0.656,0.63,0.506
HOP-62,0.33,0.366,0.337,0.369,0.417,0.763,1.01,,0.977,0.995,0.923,1.21,1.2,1.22,1.18,0.579,0.675,0.874,0.688,0.85
HCC-827,0.265,0.29,0.28,0.584,0.289,0.743,0.709,,0.76,0.826,1.05,0.958,1.04,1.03,1.07,0.249,0.191,0.21,0.174,0.207
NCI-H2228,0.343,0.313,0.37,0.349,0.349,0.523,0.658,0.625,0.529,0.411,0.844,0.833,0.963,0.842,0.657,,,,,

Cell Line,relative viability (Sunitinib + Pemetrexed; first compound 0.02 µM),relative viability (Sunitinib + Pemetrexed; first compound 0.06325 µM),relative viability (Sunitinib + Pemetrexed; first compound 0.2 µM),relative viability (Sunitinib + Pemetrexed; first compound 0.6325 µM),relative viability (Sunitinib + Pemetrexed; first compound 2 µM),relative viability (Sunitinib + OSI-027; first compound 0.02 µM),relative viability (Sunitinib + OSI-027; first compound 0.06325 µM),relative viability (Sunitinib + OSI-027; first compound 0.2 µM),relative viability (Sunitinib + OSI-027; first compound 0.6325 µM),relative viability (Sunitinib + OSI-027; first compound 2 µM),relative viability (Sunitinib + Foretinib; first compound 0.02 µM),relative viability (Sunitinib + Foretinib; first compound 0.06325 µM),relative viability (Sunitinib + Foretinib; first compound 0.2 µM),relative viability (Sunitinib + Foretinib; first compound 0.6325 µM),relative viability (Sunitinib + Foretinib; first compound 2 µM),relative viability (Sunitinib + AZD7762; first compound 0.02 µM),relative viability (Sunitinib + AZD7762; first compound 0.06325 µM),relative viability (Sunitinib + AZD7762; first compound 0.2 µM),relative viability (Sunitinib + AZD7762; first compound 0.6325 µM),relative viability (Sunitinib + AZD7762; first compound 2 µM)
UMC-11,0.669,0.838,0.843,0.885,0.772,0.401,0.526,0.54,0.494,0.462,0.962,1.03,1.11,1.06,0.956,,,,,
NCI-H2342,0.731,0.821,0.808,0.739,0.843,0.663,0.657,0.589,0.675,0.703,0.901,1.17,1.15,1.18,1.16,0.48,0.601,0.649,0.505,0.556
ABC-1,,,,,,0.43,0.604,0.494,0.685,0.504,1.01,1.07,1.3,1.26,1,0.77,0.863,0.921,0.865,0.927
HARA,0.26,0.274,0.241,0.222,0.263,0.447,0.566,0.655,0.489,0.399,0.857,1.13,0.97,0.991,0.868,0.355,0.337,0.582,0.29,0.301
HCC-78,0.914,0.927,0.949,0.93,,0.352,0.397,0.377,0.379,0.411,0.527,0.588,0.525,0.545,0.613,0.554,0.609,0.727,0.485,0.713
NCI-H1792,0.619,0.942,1.26,1.21,0.775,0.667,0.716,0.829,0.691,0.481,,,,,,0.503,0.847,1.02,0.835,0.512
Calu-6,,,,,,,,,,,0.836,0.951,0.913,0.963,,,,,,
NCI-H1563,0.759,0.727,0.782,0.721,0.852,0.694,0.79,0.766,0.762,0.75,0.822,1.05,0.999,1.03,0.993,,,,,
NCI-H661,0.882,0.958,0.915,0.978,0.943,0.646,0.785,0.801,0.767,0.704,1.06,1.07,1.01,,1.04,,,,,
SK-MES-1,0.851,0.946,1.09,1.13,0.903,0.583,0.63,0.681,0.719,0.56,0.932,0.932,1.03,1.09,0.894,,,,,
EBC-1,,,,,,,,,,,0.101,0.112,0.0979,0.112,0.119,,,,,
NCI-H2009,1.03,1.01,1.1,1.08,1.12,0.578,0.772,0.704,0.771,0.666,1.19,1.25,1.31,1.27,1.3,,,,,
NCI-H520,0.61,0.814,0.686,0.761,0.6,0.249,0.286,0.321,0.292,0.3,0.593,0.843,0.798,1,0.605,,,,,
SW 1573,0.867,,0.9,0.958,0.943,0.617,0.938,0.779,0.781,0.671,0.879,0.928,0.889,1.09,0.998,,,,,
A549,,,,,,,,,,,1.06,0.951,1.09,1.05,0.974,,,,,
NCI-H2023,0.235,0.307,0.265,0.301,0.222,0.341,0.437,0.399,0.398,0.289,0.739,0.887,0.981,0.659,0.78,,,,,
NCI-H727,,,,,,0.717,0.574,0.757,0.687,0.631,0.926,0.837,1.12,0.979,0.788,0.652,0.575,0.554,0.612,0.618
COR-L 105,1.08,1.01,1.1,1.14,1.22,0.626,0.734,0.779,0.987,0.767,1.07,1.22,0.952,1.12,1.12,,,,,
NCI-H1650,0.399,0.307,0.411,0.346,0.448,0.577,0.65,0.527,0.768,0.513,1.23,1.14,1.09,0.977,1.08,,,,,
NCI-H1299,,,,,,,,,,,1.07,1.15,1.14,1.08,1.12,,,,,
